# From patent US20170079966A1, “INHIBITION OF TUMOR CELL INTERACTIONS WITH THE MICROENVIRONMENT RESULTING IN A REDUCTION IN TUMOR GROWTH AND DISEASE PROGRESSION” (Deciphera Pharmaceuticals, LLC, priority 2014, published 2017)
# Experiments:
# [1] = system: U87-MG xenograft glioma; assay: Orthotopic U87-MG xenograft efficacy model (BLI); format: in vivo, mice; conditions: after two weeks of treatment; bevacizumab 5 mg/kg IP every three days; Compound 1 10 mg/kg BID
# Experimental: Protocol for in vivo xenograft efficacy study. […] Treatments began on Day 31.
# The tumor cells were injected intracerebroventricularly (ICV) and tumor growth was monitored in vivo by quantitation of luciferase-mediated BLI.
# [2] = target: TIE2 (Homo sapiens, UniProt Q02763); assay: HUVEC Phospho-TIE2 Western Blot Assay; format: cell-based; set-up: host or cells: HUVEC; conditions: 4 hours compound; 800 ng/mL ANG1 complex 15 minutes; read-out: IC50, ANG1-stimulated phospho-TIE2 in HUVECs
# Experimental: HUVEC cells (2.5×10^5 cells/well) were added to a 24-well tissue-culture treated plate in 1 mL of EGM-2 culture medium (Lonza, Walkersville, Md.). Cells were then incubated overnight at 37 degrees Celsius, 5% CO2, and 95% humidity. Media was then aspirated and 1 mL EBM-2 basal medium (Lonza, Walkersville, Md.) supplemented with 2% FBS (Invitrogen, Carlsbad, Calif.) was added. […] The plates were then incubated for 4 hours at 37 degrees Celsius, 5% CO2, and 95% humidity. During the incubation, histidine-tagged angiopoietin 1 (ANG1) growth factor (R&D Systems, Minneapolis, Minn.) was added to an anti-polyhistidine antibody (R&D Systems, Minneapolis, Minn.) for 30 minutes at room temperature to generate multimers of ANG1. […] The media was aspirated and the cells were washed with PBS. The cells were lysed using MPER lysis buffer (Pierce, Rockford, Ill.) containing Halt Phosphatase and Protease Inhibitors (Pierce, Rockford, Ill.) and Phosphatase inhibitor cocktail 2 (Sigma, St. Louis, Mo.) at 4° C. for 10 minutes with shaking. […] Fluorescence was detected using a Storm 840 phosphorimager (GE Healthcare, Piscataway, N.J.) in fluorescence mode. The 160 kDa phospho-TIE2 band was quantified using ImageQuant software (GE Healthcare, Piscataway, N.J.). Data was analyzed using Prism software (GraphPad Software, San Diego, Calif.) to calculate the IC50 value.
# [3] = system: GSC11 glioblastoma cells; assay: GSC11 glioma stem cell patient-derived xenograft model (tumor volume, immunohistochemistry); format: in vivo, mice
# Experimental: For the in vivo experiments, 4- to 6-week-old female nude mice that were strictly inbred at The University of Texas MD Anderson Cancer Center and maintained in the MD Anderson Veterinary in accordance with institutional guidelines were used. For the in vivo experiments, GSC11 (5×10^5) or GSC17 (5×10^4) glioblastoma cells were implanted intracranially into nude mice. […] Control mice for these cohorts were treated with phosphate-buffered saline by i.p. injection and/or with 0.4% HPMC vehicle by oral gavage. One cohort of 10 mice per group were treated continuously and followed for survival. A separate cohort of 9 mice per group were treated continuously until the designated time point, and the tumors from these mice were extracted at 3, 4, 5 weeks in GSC11 xenograft mice model and at 3.5, 4.5, 5.5 weeks in GSC17 xenograft mice model after the start of treatment.
# When the mice treated for the designated time period developed signs and symptoms of advanced tumors, they were euthanized, and their brains were removed, fixed in 4% formaldehyde for 24 hours, and embedded in paraffin. The tissues were then sectioned serially (4 μm) and stained with hematoxylin and eosin (Sigma-Aldrich). Tumor formation and phenotype were determined by histologic analysis of the hematoxylin- and eosin-stained sections. The tumor volume, greatest longitudinal diameter (length), and greatest transverse diameter (width) were measured using an external caliper and Adobe Illustrator software. The tumor volumes were calculated by the following formula: volume=½(length×width^2).
# For immunohistochemical analyses, the tissue sections were deparaffinized and subjected to graded rehydration. After blocking the tissue in 5% horse and goat serum and antigen retrieval solution (citrate buffer, pH 6.0), we incubated the tissue sections overnight at 4° C. with primary antibodies against Factor VIII (1:500; A0082, Dako) to assess microvessel formation, vimentin (1:100; M0725, Dako) to assess mesenchymal marker expression, F4/80 (1:50; 123102, BioLegend) to assess monocyte infiltration, nestin (1:300; Ab6142, Abcam) to assess glioma stem cell marker expression, HGF (1:200; LS-B4657, LSBio), and TIE2 (1:50; Santa Cruz Biotechnology) to assess TIE2-expressing monocyte infiltration. Texas red fluorescein isothiocyanate-conjugated secondary antibodies or anti-rat immunoglobulin G antibodies (Invitrogen) were used for 1 hour at room temperature.
# All statistical analyses were conducted with the GraphPad 6 (InStat) software for Windows 7. Survival analysis was conducted using the Kaplan-Meier method, and differences in survival between treatment groups were assessed using the log-rank test. All other comparisons were performed using an unpaired two-tailed Student t-test. Summary statistics for continuous data are expressed as the mean±standard error of the mean. P values less than 0.05 were considered statistically significant. The nestin staining was assessed using the Image-Pro Plus system version 7.0 (Media Cybernetics) in ×10 fields of at least three tumor samples per group with three to four different sections per tumor sample.
# [4] = system: U87-MG xenograft glioma; assay: Orthotopic U87-MG xenograft survival model; conditions: bevacizumab 10 mg/kg IP twice weekly; Compound 1 10 mg/kg twice daily PO; from Day 12
# Experimental: Protocol for in vivo xenograft survival study. Female nude mice were implanted intracranially with one million luciferase-enabled U87-MG cells. Treatments began on Day 12. Mice (n=10/group) were dosed until the end of study. Three additional mice were treated as above for pharmacodynamic analysis after five weeks. Brain BLI signal was determined using an IVIS 50 optical imaging system (Xenogen, Alameda, Calif.). Animals were injected IP with 150 mg/kg D-Luciferin and imaged 10 min post-injection.
# Treatment began on Day 12, when the mean brain BLI signal was 5.8×10^6 photons/sec, and continued until the end of study. Mice were followed through survival.
# Chain of TIE2 (Q02763 23-1124): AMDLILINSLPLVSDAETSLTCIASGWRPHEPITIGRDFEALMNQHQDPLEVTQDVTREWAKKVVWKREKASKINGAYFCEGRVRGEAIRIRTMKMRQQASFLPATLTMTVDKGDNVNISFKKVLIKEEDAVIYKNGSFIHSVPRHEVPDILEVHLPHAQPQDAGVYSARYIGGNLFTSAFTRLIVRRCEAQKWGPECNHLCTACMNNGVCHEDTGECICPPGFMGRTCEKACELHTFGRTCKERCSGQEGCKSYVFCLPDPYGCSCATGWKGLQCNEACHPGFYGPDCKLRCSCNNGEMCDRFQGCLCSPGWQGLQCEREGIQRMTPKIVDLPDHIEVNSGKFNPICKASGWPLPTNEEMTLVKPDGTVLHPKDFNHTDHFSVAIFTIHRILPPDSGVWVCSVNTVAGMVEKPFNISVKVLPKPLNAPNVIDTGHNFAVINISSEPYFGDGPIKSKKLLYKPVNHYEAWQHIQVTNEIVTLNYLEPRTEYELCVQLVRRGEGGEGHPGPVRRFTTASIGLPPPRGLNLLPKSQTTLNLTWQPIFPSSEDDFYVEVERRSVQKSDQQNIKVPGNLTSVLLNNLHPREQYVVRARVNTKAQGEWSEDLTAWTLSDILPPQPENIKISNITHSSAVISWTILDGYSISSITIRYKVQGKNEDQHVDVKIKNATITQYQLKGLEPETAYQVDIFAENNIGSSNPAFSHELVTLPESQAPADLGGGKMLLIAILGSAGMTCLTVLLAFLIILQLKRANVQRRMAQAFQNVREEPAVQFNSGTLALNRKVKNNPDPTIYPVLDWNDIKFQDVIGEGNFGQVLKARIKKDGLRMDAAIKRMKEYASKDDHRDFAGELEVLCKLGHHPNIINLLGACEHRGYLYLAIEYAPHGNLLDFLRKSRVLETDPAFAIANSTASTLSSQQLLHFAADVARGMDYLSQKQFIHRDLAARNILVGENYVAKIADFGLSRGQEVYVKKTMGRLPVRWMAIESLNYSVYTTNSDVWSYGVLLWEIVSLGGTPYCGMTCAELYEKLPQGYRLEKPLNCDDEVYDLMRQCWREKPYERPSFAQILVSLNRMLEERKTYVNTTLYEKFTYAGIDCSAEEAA
structure (smiles),measurement,setting,value
"O=C(Nc1cc(Oc2cc(F)c(NC(=O)C3(C(=O)Nc4ccc(F)cc4)CC3)cc2F)ccn1)C1CC1 [Compound 1, N-(4-(2-(cyclopropanecarboxamido)pyridin-4-yloxy)-2,5-difluorophenyl)-N′-(4-fluorophenyl)cyclopropane-1,1-dicarboxamide]",Decrease in BLI signal compared to vehicle,[1],90%
same,IC50,[2],1 nM
same,Tumor volume at 3 weeks,"[3]; GSC11, bevacizumab 10 mg/kg i.p. twice per week, Compound 1 10 mg/kg oral twice daily",1.2±0.5 mm^3
same,Tumor volume at 4 weeks,"[3]; GSC11, same dosing",9.8±2.8 mm^3
same,Tumor volume at 5 weeks,"[3]; GSC11, same dosing",32.3±14.6 mm^3
same,Factor VIII-positive area,[3]; GSC11 model,1.1±0.5%
same,Nestin-positive area,[3]; GSC11 xenograft mouse model,17.7±2.7%
same,Mesenchymal tumor marker vimentin / EMT (immunohistochemistry),[3]; GSC-11 glioma model,does not cause elevation of vimentin
same,Macrophage infiltration into tumor (F4/80 IHC staining),[3]; GSC-11 glioma xenograft model,does not result in therapy resistance-mediated increases in macrophage infiltration
same,Median survival,[4],112 days
